From PubChem BioAssay AID569 (University of Pittsburgh Molecular Library Screening Center, 2006)
Activity calls are given as the source filed them. No rule for the calls is given here.

These compounds were tested against M-phase inducer phosphatase 2 (Homo sapiens) (UniProt P30305) (assay: Cdc25B phosphatase inhibitor potency retest, dose response, biochemical, catalytic domain, fluorescence, IC50 (AID 569)). Conditions: recombinant Cdc25B phosphatase, fluorescence substrate.
Sequence of M-phase inducer phosphatase 2 (Homo sapiens) (P30305 whole entry, looked up, the tested form may be a part): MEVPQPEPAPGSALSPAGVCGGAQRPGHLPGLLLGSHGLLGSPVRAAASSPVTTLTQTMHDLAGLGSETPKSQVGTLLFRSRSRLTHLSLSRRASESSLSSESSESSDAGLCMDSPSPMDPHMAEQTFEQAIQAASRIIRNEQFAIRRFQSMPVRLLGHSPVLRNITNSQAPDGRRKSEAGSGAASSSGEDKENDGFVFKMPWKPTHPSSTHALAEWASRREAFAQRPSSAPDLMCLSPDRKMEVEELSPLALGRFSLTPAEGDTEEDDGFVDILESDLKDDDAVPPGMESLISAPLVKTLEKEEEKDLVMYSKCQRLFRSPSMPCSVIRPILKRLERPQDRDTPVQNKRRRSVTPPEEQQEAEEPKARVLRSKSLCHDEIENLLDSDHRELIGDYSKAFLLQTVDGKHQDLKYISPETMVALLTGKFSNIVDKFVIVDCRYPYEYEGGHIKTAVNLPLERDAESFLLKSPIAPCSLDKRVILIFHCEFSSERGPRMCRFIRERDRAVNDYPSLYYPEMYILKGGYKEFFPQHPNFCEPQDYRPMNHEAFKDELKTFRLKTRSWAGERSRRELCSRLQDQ

| IC50 | Structure (SMILES) |
| --- | --- |
| > 50 µM (inactive) | Cc1nc2c(C)cccn2c1/C(O)=C1\C(=O)C(=O)N(CCN(C)C)C1c1ccncc1 (stereo unspecified) |
| 9.53 µM | Oc1ccc2ccccc2c1C=NC12CN3CCN(CN(C3)C1)C2 |
| > 50 µM (inactive) | CCOc1cc(C2C(C#N)=C(N)Oc3n[nH]c(-c4ccccc4)c32)ccc1O (stereo unspecified) |
| > 50 µM (inactive) | N#CC1=C(N)N2C(=C(C#N)C13CCCCC3)SC1CCCCC12O (stereo unspecified) |
| > 50 µM (inactive) | COc1cccc(N2CCN(C3CC(=O)N(c4cccc(Cl)c4)C3=O)CC2)c1 (stereo unspecified) |
| > 50 µM (inactive) | O=C1CC(N2CCN(CCc3ccccn3)CC2)C(=O)N1c1ccc(Cl)cc1 (stereo unspecified) |
